In the experiment the target is T1, CDC25B (Homo sapiens, UniProt P30305).
T1 construct: Recombinant forms of the catalytic domains of CDC25A, -B and -C were obtained through the vectors pET28a-CDC25A-cd, pET28a-CDC25B-cd and pET28a-CDC25C-cd; made in house
T1 sequence (P30305 431-538 limits assumed): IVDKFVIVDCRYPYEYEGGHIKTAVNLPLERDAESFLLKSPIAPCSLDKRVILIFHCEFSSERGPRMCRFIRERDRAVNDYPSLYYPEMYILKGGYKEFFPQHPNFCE
Put plainly: Residual phosphatase activity of recombinant CDC25B, fluorimetric OMFP assay. The following applies: for remaining activity at 0.2 µM: 0.2 μM inhibitor; for remaining activity at 0.2 µM / remaining activity at 1 µM: 10 nM CDC25B, 25 μM OMFP, read-out: CDC25B residual activity (%) in the presence of [inhibitor]; for remaining activity at 1 µM: 1 μM inhibitor; for inhibition of the CDC25B phosphatase activity (in words): two inhibitor concentrations, 0.2 and 1 μM. Format: biochemical. The method, then:
Among the twenty-five structures identified from the multiple ligand-based chemoinformatic approach, eight compounds (2, 10, 12–14, and 16–18) were excluded from the analysis, because endowed with a strong fluorescent signal, which interfered with the emission wavelength of the synthetic substrate 3-O-methylfluorescein phosphate (OMFP) used in the fluorimetric assay. The inhibition of the phosphatase activity of CDC25B by the remaining seventeen analogs was evaluated in the presence of two different concentrations of these compounds (Table 2). […] For this reason, only one of these latter compounds, i.e. 3, was included in the following analysis.
The enzymatic activity of the catalytic domains of CDC25A, -B and -C were determined through a fluorimetric method, which monitored the dephosphorylation of the synthetic substrate OMFP, essentially as previously described. In steady-state enzyme kinetic studies, the residual phosphatase activity of purified recombinant CDC25B was measured at 30°C in the presence of different concentrations of the various inhibitors, using a computer-assisted Cary Eclipse spectrofluorimeter (Varian) equipped with an electronic temperature controller. Excitation and emission wavelengths were set at 485 and 530 nm, respectively; both excitation and emission slits were set at 10 nm. The reaction mixture contained 10 nM CDC25B and different concentrations of the various inhibitors in 500 μL final volume of 20 mM Tris-HCl, pH 7.8, 1 mM DTT. DMSO was used as vehicle control. The reaction started by the addition of 25 μM OMFP, and the formation of the fluorescent product o-methylfluorescein was monitored continuously. The rate of OMFP hydrolysis was expressed as arbitrary units per min (a.u./min). The comparison of the rates determined in the absence and in the presence of the various inhibitors allowed the calculation of the residual phosphatase activity, expressed as a percentage.

Molecules are shown by their SMILES.

`O=C(O)CCc1c2ccc(=O)cc-2oc2cc(O)ccc12` [Compound 4]: the remaining activity at 0.2 µM is 90%; the remaining activity at 1 µM amounted to 28%; the “inhibition of the CDC25B phosphatase activity (in words)” value (“inhibition” below) is “measurable inhibition of the phosphatase activity, only when added at the highest concentration”.
With `O=C(O)c1ccccc1-c1c2cc([N+](=O)[O-])c(=O)c(Br)c-2oc2c(Br)c(O)c([N+](=O)[O-])cc12` [Compound 19], the remaining activity at 0.2 µM was 86%; the remaining activity at 1 µM turned out to be 70%; the “inhibition” value is on record as “measurable inhibition of the phosphatase activity, only when added at the highest concentration”.
As to `Cc1c2ccc(=O)cc-2oc2cc(O)ccc12` [Compound 1], the remaining activity at 0.2 µM was 76%; the remaining activity at 1 µM stood at 9%; the “inhibition” value is “measurable inhibition of the phosphatase activity, only when added at the highest concentration”.
Turning to `O=c1ccc2c(-c3ccccc3S(=O)(=O)O)c3ccc(O)c(O)c3oc-2c1O` [Compound 20], the remaining activity at 0.2 µM was 91%; the remaining activity at 1 µM was found to be 24%; the “inhibition” value is “measurable inhibition of the phosphatase activity, only when added at the highest concentration”.
Take `CN(C)c1ccc(-c2c3cc(O)c(=O)cc-3oc3cc(O)c(O)cc23)cc1` [Compound 22]: the remaining activity at 0.2 µM came out at 80%; the remaining activity at 1 µM is 0%; the “inhibition” value is “measurable inhibition of the phosphatase activity, only when added at the highest concentration”.
As to `O=C(O)c1ccccc1-c1c2cc(I)c(=O)c(I)c-2oc2c(I)c(O)c(I)cc12` [Compound 15], the remaining activity at 0.2 µM is 79%; the remaining activity at 1 µM was determined as 18%; the “inhibition” value was “measurable inhibition of the phosphatase activity, only when added at the highest concentration”.

(Values after article PMC4741889, “Ligand-based chemoinformatic discovery of a novel small molecule inhibitor targeting CDC25 dual specificity phosphatases and displaying in vitro efficacy against melanoma cells” (Oncotarget, 2015).)
